Data published in BindingDB's records for doi:10.1021/cb700200w (Novartis, 2008).

The compounds below were run against T1, Aurora kinase A (Homo sapiens, UniProt O14965) (assay: Aurora Kinase SPA Assay). Conditions: not given.
T1 sequence (O14965 whole entry): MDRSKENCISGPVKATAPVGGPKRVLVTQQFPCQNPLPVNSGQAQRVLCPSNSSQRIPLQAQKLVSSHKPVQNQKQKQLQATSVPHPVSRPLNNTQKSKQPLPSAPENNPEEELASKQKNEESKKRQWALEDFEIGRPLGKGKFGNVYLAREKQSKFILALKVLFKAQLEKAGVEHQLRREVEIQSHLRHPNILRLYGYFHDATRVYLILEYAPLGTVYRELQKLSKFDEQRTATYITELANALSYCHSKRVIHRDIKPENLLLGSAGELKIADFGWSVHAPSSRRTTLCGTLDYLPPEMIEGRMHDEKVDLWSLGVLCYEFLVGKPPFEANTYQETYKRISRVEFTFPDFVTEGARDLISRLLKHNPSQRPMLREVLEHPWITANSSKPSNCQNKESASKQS
Experimental: The biochemical activity of compounds was determined by incubation with Aurora A and substrates in the presence ATP/[gamma-33P] ATP. After incubation, the reaction was stopped and the phosphorylated substrate was separated from nonincorporated radioactive ATP using SPA beads (Amersham Pharmacia Biotech), counted using TopCount (Packard) to measure substrate-incorporated phosphate.

Row | SMILES | IC50 [nM]
1 | COc1cccc(Nc2ncc(Br)s2)c1 [5-bromo-N-(3-methoxyphenyl)-1,3-thiazol-2-amine] | 900
2 | O=C(NCCN1CCCC1)c1ccc(Nc2ncc(Br)s2)cc1 [4-[(5-bromo-1,3-thiazol-2-yl)amino]-N-[2-(pyrrolidin-1-yl)ethyl]benzamide] | 5320
3 | Cc1cc(C)cc(Nc2ncc(Br)s2)c1 [5-bromo-N-(3,5-dimethylphenyl)-1,3-thiazol-2-amine] | > 10000
4 | FC(F)(F)c1ccccc1Nc1ncc(Br)s1 [5-bromo-N-[2-(trifluoromethyl)phenyl]-1,3-thiazol-2-amine] | > 10000
5 | CCOC(=O)c1cccc(Nc2ncc(Br)s2)c1 [ethyl 3-[(5-bromo-1,3-thiazol-2-yl)amino]benzoate] | 2250
6 | Cc1ccccc1Nc1ncc(Br)s1 [5-bromo-N-(2-methylphenyl)-1,3-thiazol-2-amine] | 3000
7 | Brc1cnc(Nc2cccc3ccccc23)s1 [5-bromo-N-(naphthalen-1-yl)-1,3-thiazol-2-amine] | 5000
8 | Fc1ccc(F)c(Nc2ncc(Br)s2)c1 [5-bromo-N-(2,5-difluorophenyl)-1,3-thiazol-2-amine] | > 10000
9 | CC(=O)Nc1ncc(Br)s1 [N-(5-bromo-1,3-thiazol-2-yl)acetamide] | > 10000
10 | CN(C)CCNC(=O)c1ccc(Nc2ncc(Br)s2)cc1 [4-[(5-bromo-1,3-thiazol-2-yl)amino]-N-[2-(dimethylamino)ethyl]benzamide] | 5250
11 | N#Cc1cnc(Nc2ccc(CN3CCN(CCO)CC3)cn2)s1 [2-[(5-{[4-(2-hydroxyethyl)piperazin-1-yl]methyl}pyridin-2-yl)amino]-1,3-thiazole-5-carbonitrile] | 5400
12 | Nc1ncc(Br)s1 [5-bromo-1,3-thiazol-2-amine] | > 10000
13 | CN1CCN(Cc2ccc(Nc3ncc(C#N)s3)nc2)CC1 [2-({5-[(4-methylpiperazin-1-yl)methyl]pyridin-2-yl}amino)-1,3-thiazole-5-carbonitrile] | 3800
14 | FC(F)(F)c1cccc(Nc2ncc(Br)s2)c1 [5-bromo-N-[3-(trifluoromethyl)phenyl]-1,3-thiazol-2-amine] | 10000
15 | Fc1ccccc1Nc1ncc(Br)s1 [5-bromo-N-(2-fluorophenyl)-1,3-thiazol-2-amine] | 5500
16 | Clc1ccc(Nc2ncc(Br)s2)cc1Cl [5-bromo-N-(3,4-dichlorophenyl)-1,3-thiazol-2-amine] | > 10000
17 | CCN1CCN(Cc2ccc(Nc3ncc(C#N)s3)nc2)CC1 [2-({5-[(4-ethylpiperazin-1-yl)methyl]pyridin-2-yl}amino)-1,3-thiazole-5-carbonitrile] | 4400
18 | O=C(Nc1ncc(Br)s1)c1ccccc1 [N-(5-bromo-1,3-thiazol-2-yl)benzamide] | 5500

Row | SMILES | IC50 [nM]
19 | Cc1cccc(Nc2ncc(Br)s2)c1 [5-bromo-N-(3-methylphenyl)-1,3-thiazol-2-amine] | 1100
20 | O=C(Nc1ccccc1)Nc1ncc(Br)s1 [3-(5-bromo-1,3-thiazol-2-yl)-1-phenylurea] | > 10000
21 | Brc1cnc(Nc2ccncc2)s1 [5-bromo-N-(pyridin-4-yl)-1,3-thiazol-2-amine] | 7800
22 | CNC(=O)N1CCN(Cc2ccc(Nc3ncc(C#N)s3)nc2)CC1 [4-({6-[(5-cyano-1,3-thiazol-2-yl)amino]pyridin-3-yl}methyl)-N-methylpiperazine-1-carboxamide] | 880
23 | Fc1cccc(Nc2ncc(Br)s2)c1 [5-bromo-N-(3-fluorophenyl)-1,3-thiazol-2-amine] | 9300
24 | Brc1cnc(Nc2cccnc2)s1 [5-bromo-N-(pyridin-3-yl)-1,3-thiazol-2-amine] | 3600
25 | Clc1cc(Cl)cc(Nc2ncc(Br)s2)c1 [5-bromo-N-(3,5-dichlorophenyl)-1,3-thiazol-2-amine] | > 10000
26 | CSc1cccc(Nc2ncc(Br)s2)c1 [5-bromo-N-[3-(methylsulfanyl)phenyl]-1,3-thiazol-2-amine] | 500
27 | N#Cc1cnc(Nc2ccccn2)s1 [ACS Chemical Biology 3180 Compound 63] | 2500
28 | CNC(=O)c1cccc(Nc2ncc(Br)s2)c1 [3-[(5-bromo-1,3-thiazol-2-yl)amino]-N-methylbenzamide] | 740
29 | FC(F)(F)c1cc(Nc2ncc(Br)s2)cc(C(F)(F)F)c1 [N-[3,5-bis(trifluoromethyl)phenyl]-5-bromo-1,3-thiazol-2-amine] | > 10000
30 | CCN(CC)CCNC(=O)c1ccc(Nc2ncc(Br)s2)cc1 [4-[(5-bromo-1,3-thiazol-2-yl)amino]-N-[2-(diethylamino)ethyl]benzamide] | 4520
31 | Brc1cnc(Nc2ccccn2)s1 [5-bromo-N-(pyridin-2-yl)-1,3-thiazol-2-amine] | 2000
32 | N#Cc1cccc(Nc2ncc(Br)s2)c1 [3-[(5-bromo-1,3-thiazol-2-yl)amino]benzonitrile] | 1500
33 | COCCNC(=O)c1cccc(Nc2ncc(Br)s2)c1 [3-[(5-bromo-1,3-thiazol-2-yl)amino]-N-(2-methoxyethyl)benzamide] | 1220
34 | COc1ccccc1Nc1ncc(Br)s1 [5-bromo-N-(2-methoxyphenyl)-1,3-thiazol-2-amine] | 2700
35 | O=C(O)c1cccc(Nc2ncc(Br)s2)c1 [3-[(5-bromo-1,3-thiazol-2-yl)amino]benzoic acid] | 440
36 | N#Cc1cnc(Nc2ccc(CN3CCOCC3)cn2)s1 [2-{[5-(morpholin-4-ylmethyl)pyridin-2-yl]amino}-1,3-thiazole-5-carbonitrile] | 1400

Same assay, conditions: pH 7; 22 °C

Row | SMILES | IC50 [nM]
37 | COCCNC(=O)c1ccc(Nc2ncc(Br)s2)cc1 [4-[(5-bromo-1,3-thiazol-2-yl)amino]-N-(2-methoxyethyl)benzamide] | 97
38 | Fc1ccc(Nc2ncc(I)s2)cc1 [N-(4-fluorophenyl)-5-iodo-1,3-thiazol-2-amine] | 500
39 | Brc1cnc(Nc2ccc(I)cc2)s1 [5-bromo-N-(4-iodophenyl)-1,3-thiazol-2-amine] | > 10000
40 | CN(c1ccc(F)cc1)c1ncc(Br)s1 [5-bromo-N-(4-fluorophenyl)-N-methyl-1,3-thiazol-2-amine] | > 10000
41 | O=C(Nc1ccc(Nc2ncc(Br)s2)cc1)c1ccccc1 [N-{4-[(5-bromo-1,3-thiazol-2-yl)amino]phenyl}benzamide] | 9200
42 | O=[N+]([O-])c1ccc(Nc2ncc(Br)s2)cc1 [5-bromo-N-(4-nitrophenyl)-1,3-thiazol-2-amine] | 13000
43 | Fc1ccc(Nc2nc(Br)cs2)cc1 [4-bromo-N-(4-fluorophenyl)-1,3-thiazol-2-amine] | > 10000
44 | CCOC(=O)c1ccc(Nc2ncc(Br)s2)cc1 [ethyl 4-[(5-bromo-1,3-thiazol-2-yl)amino]benzoate] | 5700
45 | Cc1ccc(Nc2ncc(Br)s2)cc1 [5-bromo-N-(4-methylphenyl)-1,3-thiazol-2-amine] | 2840
46 | Oc1ccc(Nc2ncc(Br)s2)cc1 [4-[(5-bromo-1,3-thiazol-2-yl)amino]phenol] | 510
47 | O=C(NCCO)c1ccc(Nc2ncc(Br)s2)cc1 [4-[(5-bromo-1,3-thiazol-2-yl)amino]-N-(2-hydroxyethyl)benzamide] | 1480
48 | Clc1ccc(Nc2ncc(Br)s2)cc1 [5-bromo-N-(4-chlorophenyl)-1,3-thiazol-2-amine] | 3000
49 | Brc1cnc(Nc2ccc(Oc3ccncc3)cc2)s1 [5-bromo-N-[4-(pyridin-4-yloxy)phenyl]-1,3-thiazol-2-amine] | 900
50 | Fc1ccc(Nc2nccs2)cc1 [N-(4-fluorophenyl)-1,3-thiazol-2-amine] | > 10000
51 | COCC(C)NC(=O)c1ccc(Nc2ncc(Br)s2)cc1 (stereo not drawn) [4-[(5-bromo-1,3-thiazol-2-yl)amino]-N-(1-methoxypropan-2-yl)benzamide] | 330
52 | CC(=O)c1ccc(Nc2ncc(Br)s2)cc1 [1-{4-[(5-bromo-1,3-thiazol-2-yl)amino]phenyl}ethan-1-one] | 1700
53 | CC(=O)Nc1ccc(Nc2ncc(Br)s2)cc1 [N-{4-[(5-bromo-1,3-thiazol-2-yl)amino]phenyl}acetamide] | 360
54 | COc1ccc(Nc2ncc(Br)s2)cc1 [5-bromo-N-(4-methoxyphenyl)-1,3-thiazol-2-amine] | 1700
55 | Nc1ccc(Nc2ncc(Br)s2)cc1 [1-N-(5-bromo-1,3-thiazol-2-yl)benzene-1,4-diamine] | 600
56 | COCCN(C)C(=O)c1ccc(Nc2ncc(Br)s2)cc1 [4-[(5-bromo-1,3-thiazol-2-yl)amino]-N-(2-methoxyethyl)-N-methylbenzamide] | 980
57 | Fc1ccc(Nc2ncc(Cl)s2)cc1 [5-chloro-N-(4-fluorophenyl)-1,3-thiazol-2-amine] | 1100
58 | Brc1cnc(Nc2ccc(Oc3ccccc3)cc2)s1 [5-bromo-N-(4-phenoxyphenyl)-1,3-thiazol-2-amine] | 1400
59 | FC(F)(F)c1ccc(Nc2ncc(Br)s2)cc1 [5-bromo-N-[4-(trifluoromethyl)phenyl]-1,3-thiazol-2-amine] | 2400
60 | N#Cc1ccc(Nc2ncc(Br)s2)cc1 [4-[(5-bromo-1,3-thiazol-2-yl)amino]benzonitrile] | 2100
61 | FC(F)(F)Oc1ccc(Nc2ncc(Br)s2)cc1 [5-bromo-N-[4-(trifluoromethoxy)phenyl]-1,3-thiazol-2-amine] | 17200
62 | Brc1cnc(Nc2ccccc2)s1 [5-bromo-N-phenyl-1,3-thiazol-2-amine] | 1100
63 | Brc1ccc(Nc2ncc(Br)s2)cc1 [5-bromo-N-(4-bromophenyl)-1,3-thiazol-2-amine] | 2900
